Assay results as given in the Kinase Knowledgebase extract (Sharma et al. 2016).

Target: ROCK2 (human) (UniProt O75116)
Assay: Assessment of ROCK2 Kinase Activity

Chain of ROCK2 (human) (O75116 whole entry, looked up): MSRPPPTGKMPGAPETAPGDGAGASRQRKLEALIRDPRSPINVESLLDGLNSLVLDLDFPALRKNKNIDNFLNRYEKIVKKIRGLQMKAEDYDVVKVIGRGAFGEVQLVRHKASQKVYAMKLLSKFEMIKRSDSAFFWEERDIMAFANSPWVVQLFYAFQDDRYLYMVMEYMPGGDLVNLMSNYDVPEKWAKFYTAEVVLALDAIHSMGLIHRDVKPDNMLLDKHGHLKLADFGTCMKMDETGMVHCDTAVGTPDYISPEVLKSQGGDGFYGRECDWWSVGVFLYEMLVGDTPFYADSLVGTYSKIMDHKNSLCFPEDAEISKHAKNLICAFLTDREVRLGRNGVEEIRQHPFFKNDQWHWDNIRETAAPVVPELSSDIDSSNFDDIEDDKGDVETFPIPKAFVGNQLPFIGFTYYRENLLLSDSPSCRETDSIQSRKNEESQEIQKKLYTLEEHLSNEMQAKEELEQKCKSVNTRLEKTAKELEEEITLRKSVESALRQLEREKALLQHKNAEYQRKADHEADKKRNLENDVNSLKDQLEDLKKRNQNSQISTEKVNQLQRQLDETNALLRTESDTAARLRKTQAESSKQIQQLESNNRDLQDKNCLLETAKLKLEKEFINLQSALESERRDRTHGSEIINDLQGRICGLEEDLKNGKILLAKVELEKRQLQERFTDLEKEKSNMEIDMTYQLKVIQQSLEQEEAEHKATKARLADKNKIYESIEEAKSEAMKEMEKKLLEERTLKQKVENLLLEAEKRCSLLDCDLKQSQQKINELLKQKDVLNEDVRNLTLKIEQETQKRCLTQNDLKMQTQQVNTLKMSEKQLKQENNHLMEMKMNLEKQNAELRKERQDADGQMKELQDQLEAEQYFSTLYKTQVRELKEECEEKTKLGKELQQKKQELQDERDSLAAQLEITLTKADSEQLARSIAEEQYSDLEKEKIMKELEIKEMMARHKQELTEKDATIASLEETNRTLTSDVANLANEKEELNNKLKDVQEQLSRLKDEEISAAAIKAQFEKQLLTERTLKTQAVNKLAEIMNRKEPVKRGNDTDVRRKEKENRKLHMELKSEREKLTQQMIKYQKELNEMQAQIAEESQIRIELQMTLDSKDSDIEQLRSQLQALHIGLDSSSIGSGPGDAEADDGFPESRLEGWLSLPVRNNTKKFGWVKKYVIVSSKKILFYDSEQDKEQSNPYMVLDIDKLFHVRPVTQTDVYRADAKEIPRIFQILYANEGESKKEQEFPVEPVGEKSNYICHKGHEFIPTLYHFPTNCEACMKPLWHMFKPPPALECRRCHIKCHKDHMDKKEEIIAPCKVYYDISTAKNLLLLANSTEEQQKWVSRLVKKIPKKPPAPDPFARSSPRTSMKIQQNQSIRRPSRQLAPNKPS

IC50, ≤ 1 µM:
NCC1(c2cccc(Cl)c2)CCC(Oc2cc3cc[nH]c(=O)c3cc2Cl)CC1 (stereo unspecified), NCC1(c2ccccc2)CCC(Oc2cc3cc[nH]c(=O)c3cc2Cl)CC1 (stereo unspecified), NCC1(c2ccccc2)CCC(Oc2cc3ccncc3cc2Cl)CC1 (stereo unspecified), C=CCC1(N)CCC(Oc2cc3cc[nH]c(=O)c3cc2Cl)CC1 (stereo unspecified), COc1ccc(C2(CN)CCC(Oc3cc4cc[nH]c(=O)c4cc3Cl)CC2)cc1OC (stereo unspecified), NCC1(c2ccc(F)cc2)CCC(Oc2cc3cc[nH]c(=O)c3cc2Cl)CC1 (stereo unspecified), NC1(CC(O)CO)CCC(Oc2cc3cc[nH]c(=O)c3cc2Cl)CC1 (stereo unspecified), N[C@]1(C2CC2)CC[C@H](Oc2cc3cc[nH]c(=O)c3cc2Cl)CC1, NCC1(c2ccc(Cl)c(Cl)c2)CCC(Oc2cc3cc[nH]c(=O)c3cc2Cl)CC1 (stereo unspecified), NCC1(c2ccc(Cl)cc2)CCC(Oc2cc3cc[nH]c(=O)c3cc2Cl)CC1 (stereo unspecified), COc1ccc(C2(CN)CCC(Oc3cc4cc[nH]c(=O)c4cc3Cl)CC2)cc1 (stereo unspecified)
